Test system: lung-resident ILCs
Test: SMART-Seq2 plate-based scRNA-seq of lung-resident ILCs from PBS-, IL-25- or IL-33-treated mice, differential gene expression by logistic regression (Tables 3, 4)
Format: in vivo, mouse
From the text: Mice and in vivo ILC activation. C57B1/6J mice were purchased from the Jackson Laboratory. Nmur1-LacZ reporter mice with a LacZ cassette knocked into the Nmur1 locus were rederived from Nmur1^tm1.1(KOMP)Vlcg sperm obtained from the trans-NIH Knock-Out Mouse Project (KOMP) Repository. NMU-deficient mice (NMU-KO) were rederived from B6.129S2-Nmu<tm1Mko> embryos from the RIKEN BioResource Center. For experiments with Nmur1-LacZ (Nmur1-KO) and NMU-KO mice, littermates that were either homozygous or heterozygous for the wild type allele were used as controls. Mice were housed under specific-pathogen-free conditions. For experiments, mice were matched for sex and age, and most mice were 6-10 weeks old. Where indicated, mice were anesthetized with Isoflurane and treated intranasally with the indicated stimuli (500 ng IL-25, 500 ng IL-33, or 20 μg Neuromedin U) daily for three consecutive days. The total administered volume was 20 μl for all conditions. Mice were randomly assigned to treatment groups after matching for sex and age. […] Mice were treated intranasally with 10 μg HDM on day 0, 7, 8, and 9, prior to sacrifice on day 10. All experiments were conducted in accordance with animal protocols approved by the Harvard Medical Area Standing Committee on Animals or BWH IACUC.
Fluorescence-activated cell sorting of innate lymphoid cells. After dissociation, single cell suspensions were incubated with CD90.2 MicroBeads (Miltenyi Biotec) on ice and enriched for CD90.2^+ cells by magnetic separation using LS columns according to the manufacturer's protocol. CD90.2^+ lung cells were then stained on ice with antibodies for sorting. ILCs were defined as 7AAD^− CD45^+ CD90.2^+ CD127^+ Lineage (CD11b, CD11c, CD19, NK1.1, […], CD4, CD8a, TCRβ, TCRγδ)^− cells and sorted on a BD FACS Aria (BD Biosciences).
For full-length scRNA-Seq, single ILCs were sorted into 96-well plates containing 5 ul TCL Buffer (QIAGEN) with 1% 2-Mercaptoethanol, centrifuged and frozen at −80° C. SMART-Seq2 protocol was carried out as previously described^23 with minor modifications in the reverse transcription step. cDNA was amplified with 22 cycles and fragmented with one-eighth of the standard Illumina NexteraXT reaction volume. Single-cell libraries were pooled and paired-end sequenced (38 bp×2) with a 75 cycle Nextseq 500 high output V2 kit.
Analysis of SMART-Seq2 plate-based scRNA-Seq data. Reads were aligned to mm10 using Kallisto (Bray, N. L., Pimentel, H., Meisted, P. & Pachter, L. Near-optimal probabilistic RNA-seq quantification. Nat Biotechnol 134, 525-527, doi:10.1038/nbt.3519 (2016)) quant, version 0.42.3. The R package tximport (Soneson, C., Love, M. I. & Robinson, M. D. Differential analyses for RNA-seq: transcript-level estimates improve gene-level inferences [version 2; referees: 2 approved]. F1000Research 4, doi:10.12688/f1000research.7563.2 (2016)), version 1.2.0, was used to convert the output to gene counts and traditional TPM values. Because of the variability in read counts per cell across plates, even from the same condition, as well as in the number of genes per cell across conditions, QC was performed for each of eight plates individually in order to remove cells that were outliers with respect to either measure. Out of 752 cells, 606 cells met QC criteria (234 from control, 152 from IL-25 treated mice, and 220 from IL-33 treated mice), and the number of genes per cell in this set ranged from 1,625 to 6,375. Genes that were not expressed with log(TPM)>2.5 in at least two cells were removed from further analysis. Subsequent analysis proceeded analogously to the droplet-based RNA-seq analysis, with parameter settings that reflected both the wider dynamic range of expression and much smaller cell numbers. The minimum ILC signature score required in ILC type assignment was 0.3. Variable genes were identified by running MeanVarPlot with x.low.cutoff=0.1, y.cutoff=1.5, and x.high.cutoff=10, resulting in a set of 519 genes. […]

## IL33
  Med16 expression coeff: −0.941
  Mfsd1 expression coeff: 1.05
  Mgat1 expression coeff: 1.21
  Mgat5 expression coeff: 1.08
  Mier3 expression coeff: −1.41
  Mkl2 expression coeff: −0.923
  Mlec expression coeff: 0.999
  Morc3 expression coeff: 1.05
  Mov10 expression coeff: 1.45
  Mplkip expression coeff: −1.13
  Mrp63 expression coeff: 1.21
  Mrpl40 expression coeff: −1.08
  Mrpl52 expression coeff: 0.944
  Mrpl53 expression coeff: −1.26
  Mrps18a expression coeff: −1.11
  Ms4a4b expression coeff: 2.44
  Ms4a6b expression coeff: 2.02
  Mtfmt expression coeff: −1.57
  Mxd1 expression coeff: 1.05
  Mybbp1a expression coeff: −0.978
  Myg1 expression coeff: −1.26
  Myo1f expression coeff: 1.04
  Myo1g expression coeff: 1.31
  Naa60 expression coeff: 1.11
  Nbn expression coeff: −1.39
  Ndufaf3 expression coeff: 1.52
  Neu3 expression coeff: −1.92
  Nfil3 expression coeff: 1.77
  Nipal1 expression coeff: 1.74
  Nlrc5 expression coeff: 1.3
  Nol6 expression coeff: −1.23
  Nol9 expression coeff: −1.02
  Nop56 expression coeff: −1.41
  Npc2 expression coeff: 1.53
  Npnt expression coeff: 0.949
  Nrip1 expression coeff: 1.07
  Nsmaf expression coeff: 0.914
  Oas1a expression coeff: 2.09
  Ogfr expression coeff: 1.12
  Omd expression coeff: −1.13
  Parp3 expression coeff: 1.21
  Parp10 expression coeff: 1.34
  Parp14 expression coeff: 1.21
  Paxip1 expression coeff: −0.998
  Pdcd1 expression coeff: 1.35
  Pde4b expression coeff: 1.24
  Per1 expression coeff: −1.16
  Pfas expression coeff: −1.41
  Phc3 expression coeff: 0.936
  Phf11a expression coeff: 1.98
  Phf11b expression coeff: 1.89
  Picalm expression coeff: 1
  Pigv expression coeff: −1.36
  Pin4 expression coeff: 1.28
  Plac8 expression coeff: 1.62
  Plekha5 expression coeff: −1.23
  Plxdc2 expression coeff: −0.903
  Pml expression coeff: 1.2
  Ppif expression coeff: −1.91
  Ppp1r15a expression coeff: −1.09
  Pydc4 expression coeff: 1.37
  Pyhin1 expression coeff: 1.04
  Rab7l1 expression coeff: 2.2
  Rab8b expression coeff: 1.03
  Rab33b expression coeff: −1.1
  Rdh1 expression coeff: −1.91
  Rdh13 expression coeff: −1.75
  Rilpl2 expression coeff: 1.43
  Rnf125 expression coeff: 1.06
  Rtp4 expression coeff: 2.55
  Samd9l expression coeff: 1.2
  Sbno2 expression coeff: 1.2
  Sdc4 expression coeff: −0.924
  Sdccag3 expression coeff: 1.08
  Sema4a expression coeff: −0.903
  Sema4d expression coeff: 1.28
  Sesn3 expression coeff: 1.18
  Shank2 expression coeff: −3.62
  Sipa1 expression coeff: 1.34
  Slc25a24 expression coeff: 1.33
  Slc44a2 expression coeff: 1.22
  Slfn2 expression coeff: 1.6
  Smn1 expression coeff: −1.01
  Sntb1 expression coeff: 1.19
  Soat1 expression coeff: 1.07
  Socs1 expression coeff: −1.32
  Socs2 expression coeff: −1.33
  Socs3 expression coeff: 1.44
  Sp100 expression coeff: 1.07
  Sptssa expression coeff: −0.952
  Ssr3 expression coeff: 0.999
  St3gal6 expression coeff: −1.32
  Stab1 expression coeff: 1.65
  Stat1 expression coeff: 1.23
  Syt11 expression coeff: 0.979
  Taf1d expression coeff: 1.1
  Tango6 expression coeff: −2.16
  Tap1 expression coeff: 1.17
  Tap2 expression coeff: 1.07
  Tet3 expression coeff: 1.32
  Tmem33 expression coeff: 1.08
  Tmem176a expression coeff: −1
  Tmem176b expression coeff: −1.23
  Tmem209 expression coeff: −1.27
  Tmem229b expression coeff: 1.01
  Tnfrsf18 expression coeff: −1.12
  Tnfsf10 expression coeff: −1.88
  Tpm4 expression coeff: 0.969
  Tradd expression coeff: 1.29
  Trafd1 expression coeff: 1.81
  Trim12c expression coeff: 1.16
  Trim30a expression coeff: 1.18
  Trim34a expression coeff: 1.29
  Trim30d expression coeff: 1.14
  Trip13 expression coeff: −2.7
  Trp53inp1 expression coeff: 1.16
  Ttc19 expression coeff: 1.44
  Ttc39b expression coeff: 1.16
  Ube2h expression coeff: 1.05
  Usp18 expression coeff: 1.6
  Usp36 expression coeff: −1.09
  Vdr expression coeff: 2.04
  Vmp1 expression coeff: 1.4
  Xrcc3 expression coeff: −1.02
  Zbp1 expression coeff: 2.38
  Zc3h12a expression coeff: −1.12
  Zcchc10 expression coeff: −0.914
  Zfand6 expression coeff: 1.38
  Zfc3h1 expression coeff: 1.14
  Zfp110 expression coeff: −1.24
  Zfp825 expression coeff: −1.02

— US20210386829A1, “COMPOSITIONS AND METHODS FOR MODULATING CGRP SIGNALING TO REGULATE INNATE LYMPHOID CELL INFLAMMATORY RESPONSES” (The Broad Institute, Inc., priority 2018, published 2021)
